Test results published in patent publication US20080280879A1, “SUBSTITUTED HETEROCYCLIC DERIVATIVES AND THEIR PHARMACEUTICAL USE AND COMPOSITIONS” (priority 2007, published 2008).
≈ marks a conversion by molar mass, not a printed value.

How the values were obtained:
Assay type in all cases: cell-based, Staphylococcus aureus
Staph aureus 2812 = assay: MIC, microtiter broth dilution (CLSI M7-A7), Assay 1, Table 12 column E, no serum; details: for MIC: Staphylococcus aureus, 2812, Staph aureus 2812, Assay 1, no serum; for MIC, column E: Staph aureus 2812, Assay 1, no serum
Outline: (§1)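 Testing followed the CLSI M7-A7 dilution standard in microtiter trays, with serum conditions using Mueller-Hinton Broth plus 50% pooled inactivated human serum. Values are the lowest concentrations with no macroscopically visible growth.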

Staph aureus 1095 MRSA = assay: MIC, microtiter broth dilution (CLSI M7-A7), Assay 1, Table 12 column A, no serum; details: Assay 1, no serum; for MIC: Staphylococcus aureus, MRSA
Outline: as §1

Staph aureus 1146 [1] = assay: MIC, microtiter broth dilution (CLSI M7-A7), Assay 1, Table 12 column B, no serum; details: for MIC: Staphylococcus aureus, 1146, Staph aureus 1146, Assay 1, no serum; for MIC, column B: Staph aureus 1146, Assay 1, no serum
Outline: as §1

Staph aureus 2811 = assay: MIC, microtiter broth dilution (CLSI M7-A7), Assay 1, Table 12 column D, no serum; details: for MIC: Staphylococcus aureus, 2811, Staph aureus 2811, Assay 1, no serum; for MIC, column D: Staph aureus 2811, Assay 1, no serum
Outline: as §1

Staph aureus 1146 [2] = assay: MIC in Mueller-Hinton Broth with 50% pooled inactivated human serum, Assay 1, Table 12; details: for MIC: Staphylococcus aureus, 1146, Staph aureus 1146, Assay 1, 50% human serum, read-out: MIC, column C; for MIC, column C: Staph aureus 1146, Assay 1, 50% human serum
Outline: as §1

Structure (SMILES) | MIC (Staph aureus 2812) | MIC (Staph aureus 1095 MRSA) | MIC (Staph aureus 1146 [1]) | MIC (Staph aureus 2811) | MIC (Staph aureus 1146 [2]) | MIC, column E (Staph aureus 2812) | MIC, column A (Staph aureus 1095 MRSA) | MIC, column B (Staph aureus 1146 [1]) | MIC, column D (Staph aureus 2811) | MIC, column C (Staph aureus 1146 [2])
COc1ccc2nccc([C@@H](O)CC[C@@H]3CCN(C4CC(c5cc(C)ccc5F)C4)C[C@@H]3C(=O)O)c2c1 (stereo partly drawn) [Example 61, (3R,4R)-1-[3-(2-fluoro-5-methylphenyl)cyclobutyl]-4-[(3S)-3-hydroxy-3-(6-methoxyquinolin-4-yl)propyl]piperidine-3-carboxylic acid] | ≤ 0.0625 µg/mL | 0.125 µg/mL (≈ 0.247 µM) | ≤ 0.0625 µg/mL | ≤ 0.0625 µg/mL | 2 µg/mL (≈ 3.95 µM) | – | – | – | – | –
COc1ccc2nccc([C@@H](O)CC[C@@H]3CCN(C4CC(c5cccc(C#N)c5)C4)C[C@@H]3C(=O)O)c2c1 (stereo partly drawn) [Example 223, (3R,4R)-1-[3-(3-cyanophenyl)cyclobutyl]-4-[(3S)-3-hydroxy-3-(6-methoxyquinolin-4-yl)propyl]piperidine-3-carboxylic acid] | 8 µg/mL (≈ 16 µM) | 16 µg/mL (≈ 32 µM) | 4 µg/mL (≈ 8.01 µM) | 4 µg/mL (≈ 8.01 µM) | 32 µg/mL (≈ 64 µM) | – | – | – | – | –
COc1ccc2nccc(C(O)CC[C@@H]3CCN(C4CC(c5ccccn5)C4)C[C@@H]3C(=O)O)c2c1 (stereo partly drawn) [Example 21, (3R,4R)-4-[3-hydroxy-3-(6-methoxyquinolin-4-yl)propyl]-1-(3-pyridin-2-ylcyclobutyl)piperidine-3-carboxylic acid] | 4 µg/mL (≈ 8.41 µM) | 16 µg/mL (≈ 33.6 µM) | 4 µg/mL (≈ 8.41 µM) | 4 µg/mL (≈ 8.41 µM) | 16 µg/mL (≈ 33.6 µM) | – | – | – | – | –
COc1ccc2nccc(C(O)CC[C@@H]3CCN(C4CC(c5ccccc5)C4)CC3(C)C(=O)O)c2c1 (stereo partly drawn) [Example 13, (4R)-4-[3-hydroxy-3-(6-methoxyquinolin-4-yl)propyl]-3-methyl-1-(3-phenylcyclobutyl) piperidine-3-carboxylic acid] | – | – | – | – | – | 2 µg/mL (≈ 4.09 µM) | 4 µg/mL (≈ 8.19 µM) | 4 µg/mL (≈ 8.19 µM) | 2 µg/mL (≈ 4.09 µM) | 32 µg/mL (≈ 65.5 µM)
COc1ccc2ncc(Cl)c(CCNC3(C(=O)O)CCCN(C4CC(c5cccc(C)c5)C4)CC3)c2c1 (stereo not shown) [Example 153, 4-{[2-(3-chloro-6-methoxyquinolin-4-yl)ethyl]amino}-1-[3-(3-methylphenyl)cyclobutyl]azepane-4-carboxylic acid] | 0.5 µg/mL (≈ 0.958 µM) | 4 µg/mL (≈ 7.66 µM) | 1 µg/mL (≈ 1.92 µM) | 0.5 µg/mL (≈ 0.958 µM) | 2 µg/mL (≈ 3.83 µM) | – | – | – | – | –
COc1ccc2ncc(F)c(C(O)COC3(C(=O)O)CCN(C4CC(c5ccccc5)C4)CC3)c2c1 (stereo not shown) [Example 146, 4-(2-(3-fluoro-6-methoxyquinolin-4-yl)-2-hydroxyethoxy)-1-(3-phenylcyclobutyl)piperidine-4-carboxylic acid] | 32 µg/mL (≈ 64.7 µM) | 32 µg/mL (≈ 64.7 µM) | 16 µg/mL (≈ 32.4 µM) | 32 µg/mL (≈ 64.7 µM) | > 64 µg/mL | – | – | – | – | –
CCOCCc1noc(C2CC(N3CC[C@@H](CCC(O)c4ccnc5ccc(OC)cc45)[C@@H](C(=O)O)C3)C2)n1 (stereo partly drawn) [Example 168, (3R,4R)-1-{3-[3-(2-ethoxyethyl)-1,2,4-oxadiazol-5-yl]cyclobutyl}-4-[3-hydroxy-3-(6-methoxyquinolin-4-yl)propyl]piperidine-3-carboxylic acid] | > 64 µg/mL | > 64 µg/mL | > 64 µg/mL | > 64 µg/mL | > 64 µg/mL | – | – | – | – | –
COc1ccc2nccc(C(O)CC[C@@H]3CCN(CC4CC(c5ccccc5)C4)C[C@@H]3C(=O)O)c2c1 (mixture of isomers) [Example 177, (3R,4R)-4-[3-hydroxy-3-(6-methoxyquinolin-4-yl)propyl]-1-[(3-phenylcyclobutyl)methyl]piperidine-3-carboxylic acid] | 8 µg/mL | 8 µg/mL | 4 µg/mL | 4 µg/mL | 32 µg/mL | – | – | – | – | –
COc1ccc2nccc(C(CC[C@@H]3CCN(C4CC(c5ccccc5)C4)C[C@@H]3C(=O)O)N3CCC3)c2c1 (stereo partly drawn) [Example 137, (3R,4R)-4-[3-Azetidin-1-yl-3-(6-methoxy-quinolin-4-yl)-propyl]-1-(3-phenylcyclobutyl)piperidine-3-carboxylic acid] | 64 µg/mL (≈ 125 µM) | > 64 µg/mL | 64 µg/mL (≈ 125 µM) | 64 µg/mL (≈ 125 µM) | > 64 µg/mL | – | – | – | – | –
COc1ccc2nccc(C(O)CC[C@@H]3CCN(C4CC(O)(c5ccccc5)C4)C[C@@H]3C(=O)O)c2c1 (mixture of isomers) [Example 96, (3R,4R)-4-[3-hydroxy-3-(6-methoxyquinolin-4-yl)propyl]-1-(3-hydroxy-3-phenylcyclobutyl)piperidine-3-carboxcylic acid] | – | – | – | – | – | >64 µg/mL | >64 µg/mL | 8 µg/mL | >64 µg/mL | >64 µg/mL
COc1ccc2ncc(Cl)c(CCNC3(C(=O)O)CCN(C4CC(c5ccccc5)C4)CC3)c2c1 (stereo not shown) [Example 100, 4-{[2-(3-chloro-6-methoxyquinolin-4-yl)ethyl]amino}-1-(3-phenylcyclobutyl)piperidine-4-carboxylic acid] | 0.5 µg/mL (≈ 1.01 µM) | 0.5 µg/mL (≈ 1.01 µM) | 0.5 µg/mL (≈ 1.01 µM) | 0.25 µg/mL (≈ 0.506 µM) | > 64 µg/mL | – | – | – | – | –
